Data published in US11541132B2, “Radiolabeled compounds” (Hoffmann-La Roche Inc., priority 2017, dated 2023).

Columns and labels:
[1] = target: T1, native aSyn aggregates in A30P transgenic mouse brain sections (Homo sapiens, UniProt P37840, A30P); assay: aSyn in vitro displacement assay ([3H]Example-3 autoradiography); format: binding, mutant human aSyn gene); conditions: 3 nM [3H]Example-3, A30P transgenic mouse brain sections; for inhibition at 1 µM: 1 μM compound, read-out: PCT_INHIB A30P @ 1 μM (% displacement of [3H]Example-3)
T1 construct: from tissue; host or cells: brain sections (midbrain and pons as ROI) of A30P transgenic mice, line B6.D2-Tg(Thy1-SNCA*30P)31Pjk

[2] = target: T2, native Aβ aggregates in human AD brain tissue sections (Homo sapiens, UniProt P05067); assay: Aβ in vitro displacement assay (selectivity counterscreen, [3H]Example 3 autoradiography); format: binding; conditions: 3 nM [3H]Example 3, human AD brain sections; for inhibition at 1 µM: 1 μM compound, read-out: sel. counterscreen PCT_INHIB AD @ 1 μM (% displacement of [3H]Example 3)
T2 construct: native Aβ aggregates in human AD brain tissue samples; from tissue; host or cells: human AD brain tissue sections
T2 sequence (P05067 672-713 limits assumed): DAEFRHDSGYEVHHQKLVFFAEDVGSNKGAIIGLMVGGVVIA

SMILES | inhibition at 1 µM [1] [%] | inhibition at 1 µM [2] [%] | inhibition at 3 µM ([1]; 3 μM compound, read-out: PCT_INHIB A30P @ 3 μM) [%] | inhibition at 3 µM ([2]; 3 μM compound, read-out: sel. counterscreen PCT_INHIB AD @ 3 μM) [%]
Cn1cc(C(=O)Nc2ccc(N3CCN(c4ccc(C#N)cc4)CC3)cc2)cn1 [Example 158, N-(4-(4-(4-Cyanophenyl)piperazin-1-yl)phenyl)-1-methyl-1H-pyrazole-4-carboxamide] | 83 | 87 |  | 
Cc1ccc(C(=O)Nc2cnc(N3CCN(c4ccccn4)CC3)cn2)nc1 [Example 90, 5-Methyl-N-(5-(4-(pyridin-2-yl)piperazin-1-yl)pyrazin-2-yl)picolinamide] | 85 | 74 |  | 
COc1ccc(C(=O)Nc2ccc(N3CCN(c4ccccn4)CC3)cn2)cc1 [Example 43, 4-Methoxy-N-(5-(4-(pyridin-2-yl)piperazin-1-yl)pyridin-2-yl)benzamide] | 84 | 99 |  | 
Cc1ccc(C(=O)Nc2ccc(N3CCN(c4nccs4)CC3)cc2)c(F)c1 [Example 21, 2-Fluoro-4-methyl-N-[4-[4-(1,3-thiazol-2-yl)piperazin-1-yl]phenyl]benzamide] | 85 | 91 |  | 
COc1ccc(C(=O)Nc2ccc(N3CCN(c4ccc(C#N)cc4)CC3)cc2)nc1 [Example 166, N-(4-(4-(4-Cyanophenyl)piperazin-1-yl)phenyl)-5-methoxypicolinamide] | 81 | 70 |  | 
Cc1ccc(C(=O)Nc2ccc(N3CCN(c4ccccn4)CC3)cn2)c(F)c1 [Example 52, 2-Fluoro-4-methyl-N-(5-(4-(pyridin-2-yl)piperazin-1-yl)pyridin-2-yl)benzamide] | 92 | 95 |  | 
O=C(Nc1ccc(N2CCN(c3ccccn3)CC2)cn1)c1ccccc1F [Example 47, 2-Fluoro-N-(5-(4-(pyridin-2-yl)piperazin-1-yl)pyridin-2-yl)benzamide] | 83 | 94 |  | 
COc1ccc(C(=O)Nc2ccc(N3CCN(c4ncccc4F)CC3)cc2)cc1 [Example 148, N-(4-(4-(3-Fluoropyridin-2-yl)piperazin-1-yl)phenyl)-4-methoxybenzamide] | 86 | 89 |  | 
COc1ccc(C(=O)Nc2ccc(N3CCN(c4cc(Cl)ccn4)CC3)cc2)cc1 [Example 149, N-(4-(4-(4-Chloropyridin-2-yl)piperazin-1-yl)phenyl)-4-methoxybenzamide] | 93 | 91 |  | 
COc1ccc(C(=O)Nc2ccc(N3CCN(c4ccc(N(C)C)cn4)CC3)cc2)cc1 [Example 142, N-(4-(4-(5-(Dimethylamino)pyridin-2-yl)piperazin-1-yl)phenyl)-4-methoxybenzamide] | 91 | 91 |  | 
N#Cc1ccc(C(=O)Nc2ccc(N3CCN(c4ccc(C#N)cn4)CC3)cc2)cc1 [Example 164, 4-Cyano-N-(4-(4-(5-cyanopyridin-2-yl)piperazin-1-yl)phenyl)benzamide] | 80 | 90 |  | 
COc1ccc(C(=O)Nc2ccc(N3CCN(c4ccc(C#N)cc4)CC3)cc2)cc1 [Example 57, N-[4-[4-(4-Cyanophenyl)piperazin-1-yl]phenyl]-4-methoxy-benzamide] | 102 | 101 |  | 
C#CCOCCOc1ccc(C(=O)Nc2ccc(N3CCN(c4ccc(C#N)cn4)CC3)cc2)cc1 [Example 175, N-[4-[4-(5-Cyano-2-pyridyl)piperazin-1-yl]phenyl]-4-(2-prop-2-ynoxyethoxy)benzamide] |  |  | 85 | 98
COc1ccc(C(=O)Nc2ccc(N3CCN(c4ccccn4)CC3)cn2)c(F)c1 [Example 44, 2-Fluoro-4-methoxy-N-(5-(4-(pyridin-2-yl)piperazin-1-yl)pyridin-2-yl)benzamide] | 95 | 94 |  | 
COc1ccc(C(=O)Nc2cnc(N3CCN(c4ccccn4)CC3)nc2)nc1 [Example 79, 5-Methoxy-N-(2-(4-(pyridin-2-yl)piperazin-1-yl)pyrimidin-5-yl)picolinamide] | 95 | 93 |  | 
COc1ccc(C(=O)Nc2cnc(N3CCN(c4ccccn4)CC3)cn2)cc1 [Example 85, 4-Methoxy-N-(5-(4-(pyridin-2-yl)piperazin-1-yl)pyrazin-2-yl)benzamide] | 98 | 107 |  | 
O=C(Nc1ccc(N2CCN(c3ccccn3)CC2)cc1)c1ccc2c(c1)OCCO2 [Example 14, N-(4-(4-(Pyridin-2-yl)piperazin-1-yl)phenyl)-2,3-dihydrobenzo[b][1,4]dioxine-6-carboxamide] | 91 | 96 |  | 
Cc1ccc(C(=O)Nc2cnc(N3CCN(c4ccccn4)CC3)cn2)cc1 [Example 89, 4-Methyl-N-(5-(4-(pyridin-2-yl)piperazin-1-yl)pyrazin-2-yl)benzamide] | 85 | 88 |  | 

SMILES | inhibition at 1 µM [1] [%] | inhibition at 1 µM [2] [%] | inhibition at 3 µM ([1]; 3 μM compound, read-out: PCT_INHIB A30P @ 3 μM) [%] | inhibition at 3 µM ([2]; 3 μM compound, read-out: sel. counterscreen PCT_INHIB AD @ 3 μM) [%]
COc1ccc(C(=O)Nc2ccc(N3CCN(c4ccc(OC)nc4)CC3)cc2)cc1 [Example 58, 4-Methoxy-N-[4-[4-(6-methoxypyridin-3-yl)piperazin-1-yl]phenyl]benzamide] | 93 | 92 |  | 
N#Cc1ccc(N2CCN(c3ccc(NC(=O)c4ccncc4)cc3)CC2)nc1 [Example 161, N-(4-(4-(5-Cyanopyridin-2-yl)piperazin-1-yl)phenyl)isonicotinamide] | 84 | 87 |  | 
O=C(Nc1ccc(N2CCN(c3ccccn3)CC2)nc1)c1ccc(N2CCOCC2)cc1 [Example 32, 4-Morpholino-N-[6-[4-(2-pyridyl)piperazin-1-yl]-3-pyridyl]benzamide] | 87 | 88 |  | 
O=C(Nc1cnc(N2CCN(c3ccccn3)CC2)nc1)c1ccc(N2CCOCC2)cc1 [Example 63, 4-Morpholino-N-(2-(4-(pyridin-2-yl)piperazin-1-yl)pyrimidin-5-yl)benzamide] | 95 | 94 |  | 
COc1ccc(C(=O)Nc2ccc(N3CCN(c4cccc(C#N)c4)CC3)cc2)cc1 [Example 103, N-[4-[4-(3-Cyanophenyl)piperazin-1-yl]phenyl]-4-methoxy-benzamide] | 100 | 99 |  | 
COc1ccc(C(=O)Nc2ccc(N3CCN(c4ccc(C#N)cc4)CC3)cc2)c(C)c1 [Example 168, N-(4-(4-(4-Cyanophenyl)piperazin-1-yl)phenyl)-4-methoxy-2-methylbenzamide] | 95 | 96 |  | 
O=C(Nc1ccc(N2CCN(c3ccccn3)CC2)cc1)c1ccc(N2CCOCC2)cc1 [Example 8, 4-Morpholino-N-(4-(4-(pyridin-2-yl)piperazin-1-yl)phenyl)benzamide] | 93 | 86 |  | 
COc1ccc(C(=O)Nc2ccc(N3CCN(c4ccccn4)CC3)c(F)c2)cc1 [Example 106, N-[3-Fluoro-4-[4-(2-pyridyl)piperazin-1-yl]phenyl]-4-methoxy-benzamide] | 82 | 88 |  | 
COc1ccc(C(=O)Nc2ccc(N3CCN(c4ccc(C#N)cc4OC)CC3)cc2)cc1 [Example 139, N-(4-(4-(4-Cyano-2-methoxyphenyl)piperazin-1-yl)phenyl)-4-methoxybenzamide] | 94 | 94 |  | 
COc1ccc(C(=O)Nc2ccc(N3CCN(c4ccc(C#N)cn4)CC3)c(F)c2)cc1 [Example 107, N-[4-[4-(5-Cyano-2-pyridyl)piperazin-1-yl]-3-fluoro-phenyl]-4-methoxy-benzamide] | 96 | 96 |  | 
COc1ccc(C(=O)Nc2ccc(N3CCN(c4nccs4)CC3)cc2)cc1 [Example 13, 4-Methoxy-N-[4-[4-(1,3-thiazol-2-yl)piperazin-1-yl]phenyl]benzamide] | 90 | 103 |  | 
CN(C)c1ccc(C(=O)Nc2ccc(N3CCN(c4ccccn4)CC3)nn2)cc1 [Example 36, 4-(Dimethylamino)-N-[6-[4-(2-pyridyl)piperazin-1-yl]pyridazin-3-yl]benzamide] | 86 | 91 |  | 
COc1ccc(C(=O)Nc2ccc(N3CCN(c4ccccn4)CC3)cc2C)c(F)c1 [Example 29, 2-Fluoro-4-methoxy-N-(2-methyl-4-(4-(pyridin-2-yl)piperazin-1-yl)phenyl)benzamide] | 81 | 83 |  | 
COc1ccc(C(=O)Nc2ccc(N3CCN(c4ccc(C)cn4)CC3)cc2)cn1 [Example 4, 6-Methoxy-N-[4-[4-(5-methyl-2-pyridyl)piperazin-1-yl]phenyl]pyridine-3-carboxamide] | 89 | 91 |  | 
COc1ccc(C(=O)Nc2ccc(N3CCN(c4ccccn4)CC3)nc2)c(F)c1 [Example 34, 2-Fluoro-4-methoxy-N-[6-[4-(2-pyridyl)piperazin-1-yl]-3-pyridyl]benzamide] | 84 | 99 |  | 
COc1ccc(C(=O)Nc2ccc(N3CCN(c4ccc(C#N)cc4)CC3)cn2)cc1 [Example 96, N-(5-(4-(4-Cyanophenyl)piperazin-1-yl)pyridin-2-yl)-4-methoxybenzamide] | 84 | 66 |  | 
O=C(Nc1ccc(N2CCN(c3ccccn3)CC2)cc1)c1ccc2nccn2c1 [Example 17, N-(4-(4-(Pyridin-2-yl)piperazin-1-yl)phenyl)imidazo[1,2-a]pyridine-6-carboxamide] | 87 | 98 |  | 
